Source: PubChem BioAssay (NCI)
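Following 48 hours of exposure in 96-well plates, responses at five concentrations were used to interpolate endpoints linearly. TGI is the concentration that stops growth completely.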

Key:
Test in all cases: NCI tumour cell line growth inhibition, 48 h
SNB-19 CNS = system: SNB-19 CNS
DU-145 prostate = system: DU-145 prostate
SK-OV-3 ovarian = system: SK-OV-3 ovarian
COLO 205 colon = system: COLO 205 colon
K-562 leukemia = system: K-562 leukemia
MALME-3M melanoma = system: MALME-3M melanoma
786-0 renal = system: 786-0 renal
NCI-H522 lung = system: NCI-H522 lung
MCF7 breast = system: MCF7 breast
OVCAR-8 ovarian = system: OVCAR-8 ovarian
SK-MEL-2 melanoma = system: SK-MEL-2 melanoma
KM12 colon = system: KM12 colon
SR leukemia = system: SR leukemia
MDA-N = system: MDA-N
T-47D breast = system: T-47D breast
NCI-H226 lung = system: NCI-H226 lung
SK-MEL-28 melanoma = system: SK-MEL-28 melanoma
UO-31 renal = system: UO-31 renal
PC-3 prostate = system: PC-3 prostate
IGROV1 ovarian = system: IGROV1 ovarian
UACC-62 melanoma = system: UACC-62 melanoma
TK-10 renal = system: TK-10 renal
NCI-H460 lung = system: NCI-H460 lung
ACHN renal = system: ACHN renal
HT29 colon = system: HT29 colon
U251 CNS = system: U251 CNS
HCT-15 colon = system: HCT-15 colon
BT-549 breast = system: BT-549 breast
UACC-257 melanoma = system: UACC-257 melanoma
HCT-116 colon = system: HCT-116 colon
HL-60(TB) leukemia = system: HL-60(TB) leukemia
MOLT-4 leukemia = system: MOLT-4 leukemia
EKVX NSCLC = system: EKVX NSCLC
OVCAR-5 ovarian = system: OVCAR-5 ovarian
SN12C renal = system: SN12C renal
A549 NSCLC = system: A549 NSCLC
RPMI-8226 leukemia = system: RPMI-8226 leukemia
SF-268 CNS = system: SF-268 CNS
CCRF-CEM leukemia = system: CCRF-CEM leukemia
SNB-75 CNS = system: SNB-75 CNS
NCI/ADR-RES ovarian = system: NCI/ADR-RES ovarian
SW-620 colon = system: SW-620 colon
OVCAR-3 ovarian = system: OVCAR-3 ovarian
M14 melanoma = system: M14 melanoma
NCI-H23 lung = system: NCI-H23 lung
HOP-92 NSCLC = system: HOP-92 NSCLC
HOP-62 NSCLC = system: HOP-62 NSCLC
HS 578T breast = system: HS 578T breast
CAKI-1 renal = system: CAKI-1 renal
OVCAR-4 ovarian = system: OVCAR-4 ovarian
MDA-MB-435 = system: MDA-MB-435
SK-MEL-5 melanoma = system: SK-MEL-5 melanoma
LOX IMVI melanoma = system: LOX IMVI melanoma
SF-295 CNS = system: SF-295 CNS
A498 renal = system: A498 renal
MDA-MB-231 breast = system: MDA-MB-231 breast
HCC-2998 colon = system: HCC-2998 colon
SF-539 CNS = system: SF-539 CNS
RXF 393 renal = system: RXF 393 renal

For `Cc1cn(C2CC(OC(=O)c3ccc(Cl)cc3)C(COC(=O)c3ccc(Cl)cc3)O2)c(=O)[nH]c1=O` (centres undefined), the TGI (SNB-19 CNS) was > 100 µM, the TGI (DU-145 prostate) was > 100 µM and the TGI (SK-OV-3 ovarian) was > 100 µM. The TGI (COLO 205 colon) was > 100 µM, the TGI (K-562 leukemia) was > 100 µM and the TGI (MALME-3M melanoma) was > 100 µM. For the same molecule, the TGI (786-0 renal) was > 100 µM, the TGI (NCI-H522 lung) was > 100 µM and the TGI (MCF7 breast) was > 100 µM. For the same molecule, the TGI (OVCAR-8 ovarian) was > 100 µM, the TGI (SK-MEL-2 melanoma) was > 100 µM and the TGI (KM12 colon) was > 100 µM. The TGI (SR leukemia) was > 100 µM, the TGI (MDA-N) was > 100 µM and the TGI (T-47D breast) was > 100 µM. For the same molecule, the TGI (NCI-H226 lung) was > 100 µM, the TGI (SK-MEL-28 melanoma) was > 100 µM and the TGI (UO-31 renal) was > 100 µM. The TGI (PC-3 prostate) was > 100 µM, the TGI (IGROV1 ovarian) was > 100 µM and the TGI (UACC-62 melanoma) was > 100 µM. For the same molecule, the TGI (TK-10 renal) was > 100 µM, the TGI (NCI-H460 lung) was > 100 µM and the TGI (ACHN renal) was > 100 µM. For the same molecule, the TGI (HT29 colon) was > 100 µM, the TGI (U251 CNS) was > 100 µM and the TGI (HCT-15 colon) was > 100 µM. For the same molecule, the TGI (BT-549 breast) was > 100 µM, the TGI (UACC-257 melanoma) was > 100 µM and the TGI (HCT-116 colon) was > 100 µM. The TGI (HL-60(TB) leukemia) was > 100 µM, the TGI (MOLT-4 leukemia) was > 100 µM and the TGI (EKVX NSCLC) was > 100 µM. For the same molecule, the TGI (OVCAR-5 ovarian) was > 100 µM, the TGI (SN12C renal) was > 100 µM and the TGI (A549 NSCLC) was > 100 µM. The TGI (RPMI-8226 leukemia) was > 100 µM, the TGI (SF-268 CNS) was > 100 µM and the TGI (CCRF-CEM leukemia) was > 100 µM. The TGI (SNB-75 CNS) was > 100 µM, the TGI (NCI/ADR-RES ovarian) was > 100 µM and the TGI (SW-620 colon) was > 100 µM. For the same molecule, the TGI (OVCAR-3 ovarian) was > 100 µM, the TGI (M14 melanoma) was > 100 µM and the TGI (NCI-H23 lung) was > 100 µM. The TGI (HOP-92 NSCLC) was > 100 µM, the TGI (HOP-62 NSCLC) was > 100 µM and the TGI (HS 578T breast) was > 100 µM. The TGI (CAKI-1 renal) was > 100 µM, the TGI (OVCAR-4 ovarian) was > 100 µM and the TGI (MDA-MB-435) was > 100 µM. For the same molecule, the TGI (SK-MEL-5 melanoma) was > 100 µM, the TGI (LOX IMVI melanoma) was > 100 µM and the TGI (SF-295 CNS) was > 100 µM.

With `CC(=O)OCC1OC(N2C(c3ccccc3)=CC(c3cccs3)C(C#N)=C2S)C(OC(C)=O)C(OC(C)=O)C1OC(C)=O` (centres undefined) the TGI (SNB-19 CNS) was > 100 µM, the TGI (DU-145 prostate) was > 100 µM and the TGI (SK-OV-3 ovarian) was > 100 µM. The TGI (COLO 205 colon) was > 100 µM, the TGI (786-0 renal) was > 100 µM and the TGI (MCF7 breast) was > 100 µM. For the same molecule, the TGI (SK-MEL-2 melanoma) was > 100 µM, the TGI (KM12 colon) was > 100 µM and the TGI (MDA-N) was > 100 µM. For the same molecule, the TGI (T-47D breast) was > 100 µM, the TGI (UO-31 renal) was > 100 µM and the TGI (PC-3 prostate) was > 100 µM. The TGI (IGROV1 ovarian) was > 100 µM, the TGI (TK-10 renal) was > 100 µM and the TGI (NCI-H460 lung) was > 100 µM. The TGI (ACHN renal) was > 100 µM, the TGI (U251 CNS) was > 100 µM and the TGI (HCT-15 colon) was > 100 µM. The TGI (A498 renal) was 42.9 µM, the TGI (UACC-257 melanoma) was > 100 µM and the TGI (HCT-116 colon) was > 100 µM. For the same molecule, the TGI (MOLT-4 leukemia) was > 100 µM, the TGI (OVCAR-5 ovarian) was > 100 µM and the TGI (SN12C renal) was > 100 µM. For the same molecule, the TGI (MDA-MB-231 breast) was > 100 µM, the TGI (A549 NSCLC) was > 100 µM and the TGI (SF-268 CNS) was > 100 µM. For the same molecule, the TGI (CCRF-CEM leukemia) was > 100 µM, the TGI (SNB-75 CNS) was > 100 µM and the TGI (NCI/ADR-RES ovarian) was > 100 µM. The TGI (HCC-2998 colon) was > 100 µM, the TGI (OVCAR-3 ovarian) was > 100 µM and the TGI (M14 melanoma) was > 100 µM. For the same molecule, the TGI (NCI-H23 lung) was > 100 µM, the TGI (HS 578T breast) was > 100 µM and the TGI (SF-539 CNS) was > 100 µM. The TGI (RXF 393 renal) was > 100 µM, the TGI (CAKI-1 renal) was > 100 µM and the TGI (LOX IMVI melanoma) was > 100 µM. For the same molecule, the TGI (SF-295 CNS) was > 100 µM.
